Measured values as given in publication PMC2360547 (British Journal of Cancer, 2006).
pIC50: −log10 of the molar value. Several values for one entry are separate records, joined by “and”; a condition that tells them apart may be missing. Equal values may be shown once. Entries after “also recorded” stand apart in the source; their conditions may differ. Read-outs that look alike come from different tables or passages of the source.

How the values were obtained:
metastatic melanoma = assay: Phase IIA clinical trial: tumour response, survival, performance status; format: in vivo, human; parameters: key to Best response: PD: progressive disease; SD: stable disease (<25% increase overall diameter of any lesion; no new lesions, after at least 4 weeks); NA: not assessable
Description: There was no limit on the amount of prior therapy, but no prior chemotherapy or immunotherapy was permitted in the 4 weeks before study entry. Patients with CNS metastases were eligible. At least the first 14 patients entered were also required to have at least two lesions suitable for excision biopsy (skin, subcutaneous metastases). Written informed consent was obtained from all patients and the protocol was approved by the Human Research Ethics Committees of the participating institutions.
This fixed dose schedule was calculated from the Phase I study, in which higher single daily doses were associated with more GIT toxicity.
Patients were reviewed for safety and efficacy of midostaurin weekly for the first month, and then on a monthly basis, or more frequently where symptoms warranted. Disease sites were re-evaluated by clinical examination monthly or CT every 2 months, or more frequently if disease progression was suspected.
(§1) It was planned to recruit 14 patients with disease suitable for biopsy as the first cohort. […] If at least one response occurred, a further 13 patients (not necessarily with disease suited for biopsy) would be recruited. Response and toxicity were assessed using WHO criteria.

[1] = tested on: patients with metastatic melanoma; assay: Phase IIA clinical trial: safety and toxicity; format: in vivo, human
Description: Disease sites were re-evaluated by clinical examination monthly or CT every 2 months, or more frequently if disease progression was suspected.
as §1

[2] = tested on: multidrug resistant cells (R100; CCRF CEM cells resistant to 100 ng ml−1 vinblastine); conditions: for Percent of potential maximum reversal of multidrug resistance: plasma from patients receiving midostaurin 75 mg t.i.d.
Description: This was determined using a previously reported method that assessed the capacity of cremophor EL to inhibit MDR^10. Briefly, the ability of the patient's plasma to modulate ex vivo intracellular daunorubicin accumulation in multidrug resistant cells (R100; CCRF CEM cells resistant to 100 ng ml^−1 vinblastine) was measured using fluorescence detection. The activity of 20 μg ml^−1 Valspodar (PSC833, an inhibitor of P-glycoprotein) added to the patient's prestudy plasma sample defined 100% reversal ([…] of daunorubicin). […] The modulating ability of day 29 plasma samples was determined relative to this. All assays were performed in triplicate. Blank plasma was spiked with 1.0 μl ml^−1 cremophor EL and run as an inter-assay control.

[3] = Plasma concentrations by HPLC with fluorescence detection; format: in vivo, human; conditions: for concentration at 28 day: human, plasma, oral
Description: (§2) Therefore, the tumour tissue was frozen and cut into as small as possible pieces with a scalpel. The pieces were weighed, added to 1 ml of water, vortexed and thereafter treated like plasma. The assay for plasma samples was validated with acceptable calibration curves, within-study variability and total recovery. […] Due to limited availability of tumour tissue, the within-study validation for tumour assay was not performed.

[4] = Tumour tissue concentrations by HPLC with fluorescence detection; format: in vivo, human; conditions: for Kp at 28 day / concentration at 28 day: human, oral, 10 subjects; for Kp at 28 day: tumour tissue / plasma, 75 mg three times a day, tumour tissue to plasma; for concentration at 28 day: 75 mg tid
Description: as §2

PKCα = tested on: PKCα; parameters: method as in Fabbro et al, 2000; conditions: ref Fabbro et al, 2000; cited from earlier work
[5] = parameters: method as in Novartis internal report; conditions: ref Novartis internal report; cited from earlier work
[6] = parameters: method as in Propper et al, 2001; conditions: Phase I trial, oral; ref Propper et al, 2001; cited from earlier work
[7] = tested on: acute myeloid leukaemia (AML); parameters: method as in Stone et al, 2005; conditions: ref Stone et al, 2005, cited from earlier work
[8] = tested on: patients with advanced cancer; conditions: ref Propper et al, 2001, cited from earlier work
[9] = 20 μg ml−1 added to pretreatment plasma, 100% = 20 μg ml−1 Valspodar

CO[C@@H]1[C@H](N(C)C(=O)c2ccccc2)C[C@H]2O[C@]1(C)n1c3ccccc3c3c4c(c5c6ccccc6n2c5c31)C(=O)NC4 [Midostaurin, N-benzoyl-staurosporine]
Median survival (metastatic melanoma; 17 patients, 75 mg p.o. t.i.d.): 43 days | Survival, range (metastatic melanoma; 17 patients, 75 mg p.o. t.i.d.): 8 to 113 days | Tumour response (metastatic melanoma; 17 patients, midostaurin 75 mg p.o. t.i.d.): No tumour responses were seen; also recorded: No patient obtained a tumour response | Patients with no change of ECOG performance status (metastatic melanoma; eight patients, on study): 47% | Patients with progressive disease (metastatic melanoma; fourteen out of 17 patients, 75 mg p.o. t.i.d.): 82% | Duration of stable disease (best response duration) (metastatic melanoma; individual patients with stable disease, midostaurin 75 mg p.o. t.i.d.): 50 days and 85 days | Best response (metastatic melanoma; individual patients, midostaurin 75 mg p.o. t.i.d., WHO criteria): PD and SD (2×) | Patients with worsening of ECOG performance status (metastatic melanoma; nine patients, on study): 53% | Patients with stable disease (metastatic melanoma; two out of 17 patients, 75 mg p.o. t.i.d.): 12% | Patients with anaemia ([1]; 17 patients): 12 patients | Patients with anaemia reaching grade 2 ([1]; 17 patients): five | Patients requiring dose modification for nausea or vomiting ([1]; 17 patients, 75 mg p.o. t.i.d.): Two | Patients with hyperglycemia ([1]; 17 patients, one of Grade 2 severity): Four | Patients with elevated liver enzymes (alanine transaminase or aspartate transaminase) possibly linked to therapy ([1]; 17 patients, only one reached grade 2): four | Patients who discontinued owing to nausea, vomiting, diarrhoea and/or fatigue possibly related to study drug ([1]; seven out of 17 patients, 75 mg p.o. t.i.d.): 41% | Percent of potential maximal reversal of multidrug resistance, mean [2, 9]: 40% | Percent of potential maximal reversal of multidrug resistance, range [2, 9]: 14–64% | Percent of potential maximum reversal of multidrug resistance ([2]; 10 out of 12 patients): < 10% | Percent of potential maximum reversal of multidrug resistance ([2]; all 12 patients): < 20% | concentration at 28 day ([3]; 75 mg three times a day, calculated for median plasma concentration of 2342 nM and 99% protein binding, read-out: Free plasma concentration): 23.4 nM | concentration at 28 day ([3]; 75 mg tid, 12 subjects, about 1 month of 75 mg tid, read-out: Plasma concentrations, maximum): 4650 nM | concentration at 28 day ([3]; 75 mg tid, 12 subjects, about 1 month of 75 mg tid, read-out: Plasma concentrations, mean): 2450 nM | concentration at 28 day ([3]; 75 mg tid, 12 subjects, about 1 month of 75 mg tid, read-out: Plasma concentrations, median): 2340 nM | concentration at 28 day ([3]; 75 mg tid, 12 subjects, about 1 month of 75 mg tid, read-out: Plasma concentrations, minimum): 771 nM | concentration at 28 day ([3]; 75 mg tid, 12 subjects, about 1 month of 75 mg tid, read-out: Plasma trough concentrations, range): 771 to 4650 nM | Plasma concentrations ([3]; individual subjects, sampling day 27-30, midostaurin 75 mg tid): 2614 nM and 1639 nM and 771 nM and 2901 nM and 2226 nM and 2387 nM and 4649 nM and 1765 nM and 1437 nM and 2297 nM and 3549 nM and 3212 nM | Kp at 28 day ([4]; read-out: Tissue/plasma ratios, maximum): 1.86 | Kp at 28 day ([4]; read-out: Tissue/plasma ratios, mean): 0.56 | Kp at 28 day ([4]; read-out: Tissue/plasma ratios, median): 0.29 | Kp at 28 day ([4]; read-out: Tissue/plasma ratios, minimum): 0.02 | concentration at 28 day ([4]; tumour tissue, tumour tissue, about 1 month of 75 mg tid, read-out: Tissue concentrations, maximum): 4250 nM | concentration at 28 day ([4]; tumour tissue, tumour tissue, about 1 month of 75 mg tid, read-out: Tissue concentrations, mean): 1300 nM | concentration at 28 day ([4]; tumour tissue, tumour tissue, about 1 month of 75 mg tid, read-out: Tissue concentrations, median): 593 nM | concentration at 28 day ([4]; tumour tissue, tumour tissue, about 1 month of 75 mg tid, read-out: Tissue concentrations, minimum): 58 nM | Tissue concentrations ([4]; tumour tissue, individual subjects, about 1 month of 75 mg tid): 58 nM and 607 nM and 266 nM and 579 nM and 4142 nM and 550 nM and 1528 nM and 358 nM and 698 nM and 4246 nM | pIC50 (PKCα): 7.66 | Plasma protein binding [5]: 99% | Elimination t1/2, range [6]: 22 to 96 h | Estimated median elimination t1/2 [6]: 38.4 h | Tolerability ([7]; 225 mg day−1 in AML): well-tolerated | AML patients with a 50% reduction in bone marrow blast cells [7]: 25% | AML patients with a 50% reduction of peripheral blood blast cells [7]: 70% | Response in two patients with cholangiocarcinoma ([8]; for 4 months on midostaurin): one had stable disease and one a partial response | MTD ([8]; oral, 12.5–300 mg day−1): not reached | Patients with nausea/vomiting ([8]; oral, 225–300 mg day−1 (grade 3 in 3)): 15 out of 16 | Patients with grade 2 diarrhoea ([8]; oral, 225–300 mg day−1): six out of 16
